Results: ChEMBL document CHEMBL5230136, “A review: Biologically active 3,4-heterocycle-fused coumarins” (Eur J Med Chem, 2021)
Several values for one entry are separate records, joined by “and”; a condition that tells them apart may be missing. Identical values can stand only once.

Legend:
[1] = system: MCF7; assay: Anticancer activity against human MCF7 cells assessed as reduction in cell viability; format: functional, cell-based
[2] = system: Plasmodium falciparum; assay: Antimalarial activity against Plasmodium falciparum by LDH assay; format: functional, organism-based
[3] = system: Plasmodium falciparum; assay: Antimalarial activity against Plasmodium falciparum Dd2 by HRP2 assay; format: functional, organism-based
[4] = system: Ehrlich; assay: cells; conditions: Mus musculus
Description: Anticancer activity against mouse EAC cells assessed as reduction in cell viability

[5] = species on record: Rattus norvegicus; assay: Antifibrotic activity in Sprague-Dawley rat model of BDL induced hepatic fibrosis assessed as […] fibrotic potential; format: functional
[6] = Antioxidant activity assessed as DPPH radical scavenging activity; format: functional
[7] = Induction of angiogenesis in human HUVEC cells; format: functional
[8] = system: MES-SA; assay: Cytotoxicity against human MES-SA cells assessed as reduction in cell viability incubated for 72 hrs by MTT assay; format: functional, cell-based
[9] = system: A549; assay: Anticancer activity against human A549 cells assessed as inhibition of cell proliferation measured after 48 hrs by MTT assay; format: functional, cell-based; conditions: A549, 48 h
[10] = system: Bacillus cereus; assay: Antibacterial activity against Bacillus cereus assessed as zone of inhibition; format: functional
[11] = system: Proteus mirabilis; assay: Antibacterial activity against Proteus mirabilis assessed as zone of inhibition; format: functional
[12] = system: Staphylococcus aureus; assay: Antibacterial activity against Staphylococcus aureus assessed as zone of inhibition; format: functional
[13] = system: Aspergillus ochraceus; assay: Antifungal activity against Aspergillus ochraceus assessed as zone of inhibition at 20 ug/ml; format: functional; conditions: read-out: IZ
[14] = system: Penicillium chrysogenum; assay: Antifungal activity against Penicillium chrysogenum assessed as zone of inhibition; format: functional
[15] = system: Serratia marcescens; assay: Antibacterial activity against Serratia marcescens assessed as zone of inhibition; format: functional
[16] = system: Aspergillus ochraceus; assay: Antifungal activity against Aspergillus ochraceus assessed as zone of inhibition; format: functional
[17] = system: Escherichia coli; assay: Antibacterial activity against Escherichia coli assessed as zone of inhibition at 20 mg/ml; format: functional; conditions: read-out: IZ
[18] = system: Aspergillus flavus; assay: Antifungal activity against Aspergillus flavus assessed as zone of inhibition at 20 mg/ml; format: functional; conditions: read-out: IZ
[19] = system: Bacillus cereus; assay: Antibacterial activity against Bacillus cereus assessed as zone of inhibition at 20 mg/ml; format: functional; conditions: read-out: IZ
[20] = system: Staphylococcus aureus; assay: Antibacterial activity against Staphylococcus aureus assessed as zone of inhibition at 20 mg/ml; format: functional; conditions: read-out: IZ
[21] = system: Trichophyton rubrum; assay: Antifungal activity against Trichophyton rubrum assessed as zone of inhibition at 20 mg/ml; format: functional; conditions: read-out: IZ
[22] = system: Geotrichum candidum; assay: Antifungal activity against Geotrichum candidum assessed as zone of inhibition at 20 mg/ml; format: functional; conditions: read-out: IZ
[23] = system: Pseudomonas aeruginosa; assay: Antibacterial activity against Pseudomonas aeruginosa assessed as zone of inhibition at 20 mg/ml; format: functional; conditions: read-out: IZ
[24] = system: Micrococcus luteus; assay: Antibacterial activity against Micrococcus luteus assessed as zone of inhibition at 20 mg/ml; format: functional; conditions: read-out: IZ
[25] = system: Candida albicans; assay: Antifungal activity against Candida albicans assessed as zone of inhibition at 20 mg/ml; format: functional; conditions: read-out: IZ
[26] = system: Serratia marcescens; assay: Antibacterial activity against Serratia marcescens assessed as zone of inhibition at 20 mg/ml; format: functional; conditions: read-out: IZ
[27] = system: Scopulariopsis; assay: Antifungal activity against Scopulariopsis assessed as zone of inhibition at 20 mg/ml; format: functional; conditions: read-out: IZ
[28] = system: Fusarium oxysporum; assay: Antifungal activity against Fusarium oxysporum assessed as zone of inhibition at 50 uM; format: functional; conditions: read-out: IZ
[29] = system: Fusarium oxysporum; assay: Antifungal activity against Fusarium oxysporum assessed as zone of inhibition at 20 mg/ml; format: functional; conditions: read-out: IZ
[30] = system: LS180; assay: cells; conditions: Homo sapiens
Description: Cytotoxicity against human LS180 cells at 50 uM by MTT reduction assay

[31] = system: MCF7; assay: Cytotoxicity against human MCF7 cells […] by MTT reduction assay; format: functional, cell-based
[32] = system: K562; assay: cells; conditions: Homo sapiens
Description: Cytotoxicity against human K562 cells at 50 uM by MTT reduction assay

[33] = system: A549; assay: Anticancer activity against human A549 cells assessed as reduction in cell viability; format: functional, cell-based
[34] = system: HeLa; assay: cells; conditions: Homo sapiens
Description: Cytotoxicity against human HeLa cells at 50 uM by MTT reduction assay

[35] = system: MCF7; assay: Antiproliferative activity against human MCF7 cells assessed as inhibition of cell proliferation measured after 96 hrs by SRB assay; format: functional, cell-based; conditions: MCF7, 96 h
[36] = system: LS180; assay: Anticancer activity against human LS180 assessed as inhibition in cell viability; format: functional, cell-based
[37] = target: D(4) dopamine receptor (Homo sapiens, UniProt P21917); assay: Binding affinity to D4 receptor (unknown origin) assessed as inhibition constant
Sequence of D(4) dopamine receptor (P21917 whole entry): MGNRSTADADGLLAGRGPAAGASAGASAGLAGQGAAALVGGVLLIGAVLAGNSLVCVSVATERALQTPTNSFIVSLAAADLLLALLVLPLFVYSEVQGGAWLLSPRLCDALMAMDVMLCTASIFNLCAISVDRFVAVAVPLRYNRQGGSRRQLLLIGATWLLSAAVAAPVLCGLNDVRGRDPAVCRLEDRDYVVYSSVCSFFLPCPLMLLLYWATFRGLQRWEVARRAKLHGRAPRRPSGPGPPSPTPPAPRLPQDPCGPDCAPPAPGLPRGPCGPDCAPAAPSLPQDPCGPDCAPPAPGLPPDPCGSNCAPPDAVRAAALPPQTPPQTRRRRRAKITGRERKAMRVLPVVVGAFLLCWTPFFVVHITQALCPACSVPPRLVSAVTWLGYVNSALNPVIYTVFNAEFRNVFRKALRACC

[38] = target: Dopamine receptors; D2 & D4 (Homo sapiens, UniProt P14416+P21917); assay: Binding affinity to human D2/D4 receptor assessed as inhibition constant; format: protein assay

For `Cc1c(-c2nnn[nH]2)c(=O)oc2c1c(=O)oc1ccccc12`, the IC50 [1] was 49 µM.
In the case of `CCN(CC)CCCC(C)Nc1cc2c(c(C)n1)c(=O)oc1ccccc12` (stereo not drawn), the IC50 [2] is reported as 1.1 µM and the IC50 [3] is reported as 1.1 µM.
For `CCc1ccccc1-n1c(N)c(C#N)c2c(c(=O)oc3ccc4ccccc4c32)c1=O`, the IC50 [4] was 246 µM and the Activity [5] was 193.07 µmol/L.
Work on `CN1CCN(Cc2[se]c3c(c2Br)c(=O)oc2ccccc23)CC1` yielded an IC50 [6] of 62 µM, an Activity [7] of 84% and an IC50 [8] of 9.4 µM.
Work on `Cc1ccc2c(c1)C(c1ccccc1)c1c(c3ccccc3oc1=O)N2` (stereo not drawn) yielded an IC50 [9] of 0.05 µM.
With `O=C1CN=C2C3=C(N=CN2N1)Oc1c(c(=O)oc2ccccc12)C3` the “inhibition zone (IZ)” value [10] was 22 mm, the “inhibition zone (IZ)” value [11] was 22 mm and the “inhibition zone (IZ)” value [12] was 20 mm. For the same molecule, the zone of inhibition at 20 µg/mL [13] was 22 mm, the “inhibition zone (IZ)” value [14] was 19 mm and 22 mm and the “inhibition zone (IZ)” value [15] was 21 mm. The “inhibition zone (IZ)” value [16] was 20 mm.
In the case of `CCOC(=O)c1sc2c(c1N)c(=O)oc1ccccc12`, the zone of inhibition at 20000 µg/mL [17] is reported as 0 mm, the zone of inhibition at 20000 µg/mL [18] is reported as 0 mm and the zone of inhibition at 20000 µg/mL [19] is reported as 0 mm. It also gave a zone of inhibition at 20000 µg/mL [20] of 9 mm, a zone of inhibition at 20000 µg/mL [21] of 0 mm and a zone of inhibition at 20000 µg/mL [22] of 0 mm. For the same molecule, the zone of inhibition at 20000 µg/mL [23] was 10 mm, the zone of inhibition at 20000 µg/mL [24] was 8 mm and the zone of inhibition at 20000 µg/mL [25] was 13 mm. It also gave a zone of inhibition at 20000 µg/mL [26] of 8 mm, a zone of inhibition at 20000 µg/mL [27] of 8 mm and a zone of inhibition at 50 µM [28] of 16 mm. For the same molecule, the zone of inhibition at 20000 µg/mL [29] was 0 mm.
For `O=C1CCCc2nc3c(c(-c4ccccc4[N+](=O)[O-])c21)c(=O)oc1ccccc13`, the IC50 [30] was greater than 100 µM, the IC50 [31] was 58.6 µM and the IC50 [32] was 25.4 µM. It also gave an IC50 [33] of 0.14 µM and an IC50 [34] of 29.8 µM.
With `O=C1CCCC(=O)C1` the IC50 [35] was 100 µM and the IC50 [36] was greater than 100 µM.
Work on `COc1ccc2c3c(c(=O)oc2c1)CN(Cc1ccncc1)CC3` yielded a Ki [37] of 0.0015 µM and a Ki [38] of 0.078 µM.
